Earlier results in patent US20090285840A1, “METHODS FOR TREATING PATHOLOGICAL NEOVASCULARIZATION” (New York Society for the Ruptured and Crippled Maintaining …, priority 2008, published 2009).

Test system: human ADAM9 mRNA
Set-up: concentration or dose not given beside the values
Conditions: percentage inhibition data reported in US 2004/0092466, Example 15; target SEQ ID NO 94; cited from earlier work

Row | Substance | % INHIB [%]
1 | 43 (CTGGAACATCTGATCCTAGC; listed as DNA, chemistry not given here) [compound 43] | 77
2 | 31 (CGATAAATGATGTGCTCAAA; listed as DNA, chemistry not given here) [compound 31] | 36
3 | 49 (ACTGAAGCTTTCCACACAAA; listed as DNA, chemistry not given here) [compound 49] | 52
4 | 40 (GTGAGGGAACTATATAAAGG; listed as DNA, chemistry not given here) [compound 40] | 66
5 | 44 (CAAATGTCTCCACAGTGATT; listed as DNA, chemistry not given here) [compound 44] | 79
6 | 45 (GCTATTGTGAACGAATGTCA; listed as DNA, chemistry not given here) [compound 45] | 86
7 | 54 (CTGATTAGTCAGTTTTCACA; listed as DNA, chemistry not given here) [compound 54] | 85
8 | 23 (CCTCTTCATCCTTTGCAGTT; listed as DNA, chemistry not given here) [compound 23] | 84
9 | 47 (ATCATGTCATACCTTTCCTT; listed as DNA, chemistry not given here) [compound 47] | 81
10 | 53 (GCACCACATTTTGTGCCTTC; listed as DNA, chemistry not given here) [compound 53] | 74
11 | 46 (CAAGATTCTAGAGTATGATG; listed as DNA, chemistry not given here) [compound 46] | 85
12 | 25 (CAAGATTATGACCCAATTCA; listed as DNA, chemistry not given here) [compound 25] | 69
13 | 57 (ATTCCTTTGGAGTACCACAG; listed as DNA, chemistry not given here) [compound 57] | 81
14 | 39 (TTCCTTCTTTCTCCAGCCTA; listed as DNA, chemistry not given here) [compound 39] | 81
15 | 59 (GGGAACTGCTGAGGTTGCTT; listed as DNA, chemistry not given here) [compound 59] | 46
16 | 28 (ATGACTGAATAAGACTTATT; listed as DNA, chemistry not given here) [compound 28] | 68
17 | 56 (AAGAAGACCAGAAGTCCGTC; listed as DNA, chemistry not given here) [compound 56] | 74
18 | 34 (TTAATAGCAAGCTTTGAAAG; listed as DNA, chemistry not given here) [compound 34] | 68
19 | 24 (GTTTCCATTGGTCCAAATCT; listed as DNA, chemistry not given here) [compound 24] | 77

Row | Substance | % INHIB [%]
20 | 41 (AGGAATTAAGTTTCCCTGAG; listed as DNA, chemistry not given here) [compound 41] | 74
21 | 27 (CTGCTTTATTATAGCCATGA; listed as DNA, chemistry not given here) [compound 27] | 85
22 | 37 (CAATGGATGAATTATGAACT; listed as DNA, chemistry not given here) [compound 37] | 62
23 | 35 (GGGTCTGTGGCAAGACAGCT; listed as DNA, chemistry not given here) [compound 35] | 65
24 | 30 (AAGATTTTATAATTGCTCCT; listed as DNA, chemistry not given here) [compound 30] | 71
25 | 52 (ATTATTGGCAGCTGATTAGT; listed as DNA, chemistry not given here) [compound 52] | 79
26 | 55 (TCAATGCAGTATTCATTTCA; listed as DNA, chemistry not given here) [compound 55] | 49
27 | 29 (TACATTAATGATAACTAAGG; listed as DNA, chemistry not given here) [compound 29] | 68
28 | 33 (ATTCATTCCAAGATTATGAC; listed as DNA, chemistry not given here) [compound 33] | 75
29 | 50 (TCCCACAAATGCCATTCCTG; listed as DNA, chemistry not given here) [compound 50] | 78
30 | 32 (CAGTGATTTGTCCAAACACA; listed as DNA, chemistry not given here) [compound 32] | 30
31 | 26 (GAATATTAAGAAGGCAGTTT; listed as DNA, chemistry not given here) [compound 26] | 27
32 | 36 (TCTTTGCTCCACAGGAACAA; listed as DNA, chemistry not given here) [compound 36] | 77
33 | 38 (TCCGTATCCTTTAGTCTCAC; listed as DNA, chemistry not given here) [compound 38] | 80
34 | 58 (GGTATCTCTTGTACATTCTC; listed as DNA, chemistry not given here) [compound 58] | 18
35 | 42 (AAAATTTTACGATCCATACC; listed as DNA, chemistry not given here) [compound 42] | 72
36 | 51 (AGAAAACCATTTCTTCCTTC; listed as DNA, chemistry not given here) [compound 51] | 75
37 | 48 (GGGAGGCTCTTCCTCTTCAT; listed as DNA, chemistry not given here) [compound 48] | 55
